Assay results published in US6872729B2, “Pyrimidinylbenzimidazole and triazinylbenzimidazole derivatives and agricultural/horticultural fungicides” (Kumiai Chemical Industry Co., Ltd., priority 1998, dated 2005).

Test system: Erysiphe graminis
Test: Test for preventive effect on wheat powdery mildew
Format: in vivo
Conditions: wheat (Norin-61-go) seedlings, 500 ppm active ingredient, preventive treatment; diseased area of first leaves 10 days after inoculation with Erysiphe graminis
Protocol: Test for Preventive Effect on Wheat Powdery Mildew 9 Wheat seeds (variety: Norin-61-go) were sown in each 9 cm×9 cm polyvinyl chloride pot, grown in a greenhouse for 8 days, then treated with 10 ml per pot of aqueous solutions of wettable powders prepared in accordance with Formulation Example 2, at a concentration of 500 ppm in terms of the active ingredients and dried in the air. Then, the seedlings were inoculated with Erysiphe graminis spores by sprinkle over the plant and placed in a greenhouse of from 20 to 25° C. 10 days after the inoculation, the total diseases area of the first leaves in each pot was observed and evaluated on the basis of the standards shown in Table 67. [table]

SMILES | Biological effectiveness
CCOc1nc(OCC)nc(-n2c(C(F)(F)F)nc3cc(Cl)ccc32)n1 [Compound I-545] | A (No diseased area)
COc1nc(OC)nc(-n2c(C)nc3ccc(C)cc32)n1 [Compound I-242] | A (No diseased area)
CCc1ccc2c(c1)nc(C)n2-c1nc(OC)nc(OC)n1 [Compound I-219] | A (No diseased area)
CCOc1ccnc(-n2cnc3cc(C)ccc32)n1 [Compound I-693] | A (No diseased area)
COc1nc(OC)nc(-n2c(C(F)(F)F)nc3cc(C(C)C)ccc32)n1 [Compound I-315] | B (Diseased area of less than 25%)
COc1nc(OC)nc(-n2c(C)nc3cc(OC(F)(F)F)ccc32)n1 [Compound I-229] | A (No diseased area)
CCCOc1cc(C)nc(-n2cnc3ccccc32)n1 [Compound I-804] | A (No diseased area)
COc1cc(OC)nc(-n2c(C#N)nc3cc(C)ccc32)n1 [Compound I-381] | A (No diseased area)
COc1nc(OC)nc(-n2c(C(F)(F)F)nc3ccccc32)n1 [Compound I-66] | A (No diseased area)
CCc1cc(C)nc(-n2cnc3cc(C)ccc32)n1 [Compound I-1086] | B (Diseased area of less than 25%)
COc1nc(OC)nc(-n2c(C(Cl)(Cl)Cl)nc3cc(Cl)ccc32)n1 [Compound I-405] | A (No diseased area)
COc1cc(OC)nc(-n2c(C)nc3cc(OC(F)(F)F)ccc32)n1 [Compound I-192] | B (Diseased area of less than 25%)
CCCc1cc(OC)nc(-n2c(C)nc3cc(C)ccc32)n1 [Compound I-965] | A (No diseased area)
COc1cc(OC)nc(-n2c(C(F)(F)C(F)(F)F)nc3ccccc32)n1 [Compound I-27] | B (Diseased area of less than 25%)
COc1cc(OC)nc(-n2c(SC)nc3cc(C)ccc32)n1 [Compound I-389] | B (Diseased area of less than 25%)
COC(=O)c1ccc2c(c1)nc(C)n2-c1nc(OC)nc(OC)n1 [Compound I-232] | B (Diseased area of less than 25%)
CCCc1cc(OC)nc(-n2c(C)nc3cc(Cl)ccc32)n1 [Compound I-964] | B (Diseased area of less than 25%)
CCCc1cc(OC)nc(-n2c(C)nc3ccc(Cl)cc32)n1 [Compound I-967] | A (No diseased area)
CCCc1cc(OC)nc(-n2c(Cl)nc3ccccc32)n1 [Compound I-960] | A (No diseased area)
Cc1cc(C2CC2)nc(-n2c(C)nc3ccc(Cl)cc32)n1 [Compound I-1106] | B (Diseased area of less than 25%)
COc1cc(OC)nc(-n2c(C(Cl)(Cl)Cl)nc3cc(Cl)ccc32)n1 [Compound I-400] | A (No diseased area)
CCCc1cc(OC)nc(-n2cnc3ccccc32)n1 [Compound I-958] | B (Diseased area of less than 25%)
CCOc1cc(OCC)nc(-n2c(S(C)(=O)=O)nc3cc(Cl)ccc32)n1 [Compound I-573] | B (Diseased area of less than 25%)
COc1nc(C)nc(-n2c(C(F)(F)F)nc3cc(C)ccc32)n1 [Compound I-762] | A (No diseased area)

SMILES | Biological effectiveness
CCOc1cc(OCC)nc(-n2c(Cl)nc3cc(C)ccc32)n1 [Compound I-530] | A (No diseased area)
COc1cc(OC)nc(-n2c(C)nc3cc(C#N)ccc32)n1 [Compound I-199] | B (Diseased area of less than 25%)
COc1cc(OC)nc(-n2c(C#N)nc3cc(Cl)ccc32)n1 [Compound I-380] | A (No diseased area)
C=CCOc1cc(C)nc(-n2c(C)nc3ccccc32)n1 [Compound I-885] | B (Diseased area of less than 25%)
COc1ccnc(-n2cnc3cc(Cl)ccc32)n1 [Compound I-669] | B (Diseased area of less than 25%)
COc1nc(OC)nc(-n2c(C)nc3cc(F)ccc32)n1 [Compound I-214] | A (No diseased area)
COc1cc(OC)nc(-n2c(Cl)nc3cc(C(F)(F)F)ccc32)n1 [Compound I-259] | A (No diseased area)
COc1cc(OC)nc(-n2c(C#N)nc3ccccc32)n1 [Compound I-38] | B (Diseased area of less than 25%)
CCc1cc(CC)nc(-n2cnc3cc(C)ccc32)n1 [Compound I-1094] | A (No diseased area)
COc1ccnc(-n2cnc3cc(C)ccc32)n1 [Compound I-670] | B (Diseased area of less than 25%)
CCc1cc(CC)nc(-n2c(C)nc3ccc(Cl)cc32)n1 [Compound I-1098] | A (No diseased area)
COc1cc(OC)nc(-n2c(C)nc3ccc(C)cc32)n1 [Compound I-202] | B (Diseased area of less than 25%)
CCCc1ccc2c(c1)nc(C)n2-c1nc(OC)nc(OC)n1 [Compound I-220] | B (Diseased area of less than 25%)
CC#Cc1cc(C)nc(-n2cnc3ccccc32)n1 [Compound I-1123] | B (Diseased area of less than 25%)
CSc1nc(SC)nc(-n2c(C)nc3cc(Cl)ccc32)n1 [Compound I-1043] | A (No diseased area)
CCOc1nc(OCC)nc(-n2c(C)nc3cc(Br)ccc32)n1 [Compound I-515] | A (No diseased area)
CCOc1cc(OCC)nc(-n2cnc3cc(C)ccc32)n1 [Compound I-482] | A (No diseased area)
COc1cc(OC)nc(-n2c(C)nc3cc(Br)ccc32)n1 [Compound I-185] | A (No diseased area)
COc1cc(OC)nc(-n2c(S(C)(=O)=O)nc3cc(Cl)ccc32)n1 [Compound I-423] | A (No diseased area)
C#CCOc1cc(C)nc(-n2cnc3cc(C)ccc32)n1 [Compound I-895] | B (Diseased area of less than 25%)
COc1nc(OC)nc(-n2c(Cl)nc3ccccc32)n1 [Compound I-41] | A (No diseased area)
CCc1cc(C)nc(-n2c(C)nc3cc(C)ccc32)n1 [Compound I-1087] | A (No diseased area)
CCCc1nc(OC)nc(-n2c(C)nc3cc(C)ccc32)n1 [Compound I-999] | A (No diseased area)
COc1nc(-c2ccccc2)nc(-n2c(C)nc3cc(C)ccc32)n1 [Compound I-1058] | A (No diseased area)

SMILES | Biological effectiveness
COc1cc(OC)nc(-n2c(Cl)nc3ccc(C)cc32)n1 [Compound I-272] | A (No diseased area)
COc1cc(C)nc(-n2cnc3ccccc32)n1 [Compound I-726] | B (Diseased area of less than 25%)
COc1nc(OC)nc(-n2c(Cc3ccccc3)nc3cc(Cl)ccc32)n1 [Compound I-379] | A (No diseased area)
CCOc1nc(OCC)nc(-n2c(C(F)(F)F)nc3cc(Br)ccc32)n1 [Compound I-546] | A (No diseased area)
CSc1nc(C)nc(-n2c(C(F)(F)F)nc3cc(C)ccc32)n1 [Compound I-1048] | A (No diseased area)
COc1nc(OC)nc(-n2c(C)nc3cc(C)c(C)cc32)n1 [Compound I-251] | A (No diseased area)
CCOc1nc(OCC)nc(-n2c(Cl)nc3cc(Cl)ccc32)n1 [Compound I-534] | A (No diseased area)
COc1nc(OC)nc(-n2c(C(F)(F)F)nc3cc(OC(F)(F)F)ccc32)n1 [Compound I-321] | A (No diseased area)
CCCCOc1cc(C)nc(-n2cnc3ccccc32)n1 [Compound I-872] | B (Diseased area of less than 25%)
CCOc1ccnc(-n2c(C)nc3cc(C)ccc32)n1 [Compound I-695] | A (No diseased area)
CCc1cc(C)nc(-n2cnc3ccccc32)n1 [Compound I-1085] | A (No diseased area)
COc1nc(OC)nc(-n2c(C(F)(F)F)nc3cc(I)ccc32)n1 [Compound I-327] | A (No diseased area)
Cc1cc(C)nc(-n2cnc3ccccc32)n1 [Compound I-1079] | B (Diseased area of less than 25%)
Cc1nc2cc(Cl)ccc2n1-c1nc(N(C)C)nc(N(C)C)n1 [Compound I-1071] | A (No diseased area)
COc1ccnc(-n2c(C)nc3ccc(Cl)cc32)n1 [Compound I-675] | B (Diseased area of less than 25%)
COc1cc(OC)nc(-n2c(CCl)nc3ccccc32)n1 [Compound I-23] | A (No diseased area)
CCCOc1nc(OCCC)nc(-n2c(C)nc3cc(Cl)ccc32)n1 [Compound I-580] | A (No diseased area)
CCOc1cc(OCC)nc(-n2c(C)nc3cc(C)ccc32)n1 [Compound I-501] | A (No diseased area)
COc1nc(OC)nc(-n2c(C)nc3ccccc32)n1 [Compound I-45] | A (No diseased area)
CCOc1cc(C)nc(-n2c(Cl)nc3ccccc32)n1 [Compound I-771] | A (No diseased area)
CCc1nc2cc(OC)ccc2n1-c1nc(OC)cc(OC)n1 [Compound I-336] | A (No diseased area)
CCOc1cc(OCC)nc(-n2c(C)nc3ccc(C(F)(F)F)cc32)n1 [Compound I-510] | A (No diseased area)
CCOc1cc(OCC)nc(-n2c(Cl)nc3cc(OC)ccc32)n1 [Compound I-531] | A (No diseased area)
C=CCOc1cc(C)nc(-n2cnc3ccccc32)n1 [Compound I-883] | A (No diseased area)
